Laboratory results: patent publication US8946298B2, “Plant disease controlling composition and method for controlling plant disease” (Sumitomo Chemical Company, Limited, priority 2010, dated 2015)

System: gray mold fungus (Botrytis cinerea)
Assay: cucumber leaf disk test, preventive value against gray mold
Type: in vivo
Settings: 15° C., four days
Method: True leaf of cucumber is punched out with cork borer to 13 mm in diameter to prepare a leaf disk. In 24 well microwell plate that is dispensed with 1 ml 0.8% water agar, the leaf disk is placed such that the upper side of the leaf is in an upward direction. Thereto is added 20 micro liter a testing solution prepared by mixing a dimethyl sulfoxide solution of the present compound (racemate) and a dimethyl sulfoxide solution of iminoctadine trialbesilate to a predetermined concentration to treat the leaf disk.
After confirming that the testing medical solution is dried, conidium of gray mold fungus (Botrytis cinerea) is suspended into potato dextrose broth (DIFCO) in a density of about 10^5 conidium/mL and is then subjected to a spray inoculation. After leaving to stand the leaf disk in a growth chamber set up at 15° C. for four days, an onset area on the leaf is measured and then calculated an onset area rate (hereinafter, referred to as an onset area rate of treated group).
The same operation is carried out with 20 micro liter water instead of 20 micro liter a testing medicine solution to calculate an onset area rate (hereinafter, referred to an onset area rate of non-treated group).
A preventive value is calculated from the above onset area rate of treated group and the onset area rate of non-treated group by the following equation: Preventive value (%)=100×(A−B)/A
A: an onset area rate of treated group
B: an onset area rate of non-treated group
The same operations as described in Test Example 1 are carried out with iminoctadine triacetate instead of iminoctadine trialbesilate, so as to calculate a preventive value.
Also for comparison, the same operations as described in Test Example 1 are carried out with the exception that the testing medicine solution is substituted with a predetermined concentration of each dimethyl sulfoxide solution of the present compound (racemate) or iminoctadine triacetate, so as to calculate respective preventive values.
For comparison, the same operations as described in Test Example 1 are carried out with the exception that the testing medicine solution is substituted with a predetermined concentration of a dimethyl sulfoxide solution of iminoctadine triacetate, so as to calculate a preventive value.

CC(=O)O.CC(=O)O.CC(=O)O.NC(N)=NCCCCCCCCNCCCCCCCCN=C(N)N [iminoctadine triacetate]
preventive value (%) (Table 2, iminoctadine triacetate alone 0.5 ppm): 20% | preventive value (%) (Table 2, iminoctadine triacetate alone 5.0 ppm): 53% | preventive value (%) (Table 3 (Reference Example), iminoctadine triacetate alone 0.5 ppm): 20% | preventive value (%) (Table 3 (Reference Example), iminoctadine triacetate alone 5.0 ppm): 56%
